Molecular target: T1, human RORγ-LBD (Homo sapiens, UniProt P51449)
T1 construct: made in house; host or cells: E. coli (BL-21)
T1 sequence (P51449 262-518): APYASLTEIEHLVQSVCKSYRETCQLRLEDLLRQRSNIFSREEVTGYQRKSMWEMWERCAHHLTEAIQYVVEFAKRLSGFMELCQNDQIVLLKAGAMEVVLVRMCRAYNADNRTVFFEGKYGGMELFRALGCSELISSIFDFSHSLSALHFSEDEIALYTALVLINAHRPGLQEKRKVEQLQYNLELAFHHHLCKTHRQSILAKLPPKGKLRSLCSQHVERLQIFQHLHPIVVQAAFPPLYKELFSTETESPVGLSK
Assay: ROR gamma coactivator peptide recruitment Alphascreen assay (RORγ-LBD binding to GRIP1 coactivator peptide)
Format: biochemical
Conditions: 5 nM human RORγ-LBD, 30 nM 7-β-hydroxycholesterol, 50 nM biotinylated GRIP1 coactivator peptide, overnight incubation at room temperature; read-out: result (pIC50, RORγ coactivator peptide recruitment Alphascreen assay) (converted)
Outline: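 His/Flag-tagged human RORγ-LBD (aa 262-518, E. coli-expressed, 5 nM) with agonist 7-β-hydroxycholesterol (30 nM) and biotinylated GRIP1 LXXLL peptide (50 nM) in HEPES pH 7.4 buffer, 2.5% DMSO. Compound 1-in-2 dilutions; Alphascreen bead signal read after overnight incubation at room temperature; pIC50 calculated.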

Row | SMILES | IC50 [nM]
1 | C[C@]1(C(=O)O)CC[C@H](n2ncc(C(=O)N(CC(=O)c3c(Cl)cncc3Cl)CC3(C(F)(F)F)CCC3)c2C(F)(F)F)CC1 [Example 799, trans-4-(4-((2-(3,5-dichloro-4-pyridinyl)-2-oxoethyl)((1-(trifluoromethyl)cyclobutyl)methyl)carbamoyl)-5-(trifluoromethyl)-1H-pyrazol-1-yl)-1-methylcyclohexanecarboxylic acid] | 3.89
2 | C[C@]1(C(=O)O)CC[C@H](n2ncc(C(=O)N(CC(=O)c3c(Cl)cncc3Cl)CC3(CF)CCC3)c2C(F)(F)F)CC1 [Example 800, trans-4-(4-((2-(3,5-dichloro-4-pyridinyl)-2-oxoethyl)((1-(fluoromethyl)cyclobutyl)methyl)carbamoyl)-5-(trifluoromethyl)-1H-pyrazol-1-yl)-1-methylcyclohexanecarboxylic acid] | 3.02
3 | Cc1cc(Cl)c(C(=O)CN(CC2CCCCC2)C(=O)c2cnn([C@H]3CC[C@](C)(C(=O)O)CC3)c2C(F)(F)F)c(Cl)n1 [Example 801, trans-4-(4-((cyclohexylmethyl)(2-(2,4-dichloro-6-methyl-3-pyridinyl)-2-oxoethyl)carbamoyl)-5-(trifluoromethyl)-1H-pyrazol-1-yl)-1-methylcyclohexanecarboxylic acid] | 8.51
4 | C[C@@H]1C[C@@H](n2ncc(C(=O)N(CC(=O)c3c(Cl)cncc3Cl)CC(C)(C)C(F)(F)F)c2C(F)(F)F)CC[C@@H]1C(=O)O [Example 802, (1S,2R,4S)-4-(4-((2-(3,5-dichloro-4-pyridinyl)-2-oxoethyl)(3,3,3-trifluoro-2,2-dimethylpropyl)carbamoyl)-5-(trifluoromethyl)-1H-pyrazol-1-yl)-2-methylcyclohexanecarboxylic acid] | 3.02
5 | CC(C)CCN(CC(=O)c1c(Cl)cncc1Cl)C(=O)c1cnn([C@H]2CC[C@H](C(=O)O)[C@H](C)C2)c1C(F)(F)F [Example 803, (1S,2R,4S)-4-(4-((2-(3,5-dichloro-4-pyridinyl)-2-oxoethyl)(3-methylbutyl)carbamoyl)-5-(trifluoromethyl)-1H-pyrazol-1-yl)-2-methylcyclohexanecarboxylic acid] | 63.1
6 | CC(C)CCN(CC(=O)c1c(Cl)cccc1Cl)C(=O)c1cnn([C@H]2CC[C@H](C(=O)O)[C@H](C)C2)c1C(F)(F)F [Example 804, (1S,2R,4S)-4-(4-((2-(2,6-dichlorophenyl)-2-oxoethyl)(3-methylbutyl)carbamoyl)-5-(trifluoromethyl)-1H-pyrazol-1-yl)-2-methylcyclohexanecarboxylic acid] | 53.7
7 | Cc1cc(F)c(C(=O)CN(C[C@]2(C)CCCO2)C(=O)c2cnn([C@H]3CC[C@](C)(C(=O)O)CC3)c2C(F)(F)F)c(Cl)c1 [Example 805, trans-4-(4-((2-(2-chloro-6-fluoro-4-methylphenyl)-2-oxoethyl)(((2S)-2-methyltetrahydro-2-furanyl)methyl)carbamoyl)-5-(trifluoromethyl)-1H-pyrazol-1-yl)-1-methylcyclohexanecarboxylic acid] | 11.2
8 | Cc1cc(F)c(C(=O)CN(C[C@@]2(C)CCCO2)C(=O)c2cnn([C@H]3CC[C@](C)(C(=O)O)CC3)c2C(F)(F)F)c(Cl)c1 [Example 806, trans-4-(4-((2-(2-chloro-6-fluoro-4-methylphenyl)-2-oxoethyl)(((2R)-2-methyltetrahydro-2-furanyl)methyl)carbamoyl)-5-(trifluoromethyl)-1H-pyrazol-1-yl)-1-methylcyclohexanecarboxylic acid] | 102
9 | C[C@]1(C(=O)O)CC[C@H](n2ncc(C(=O)N(CC(=O)c3c(Cl)cncc3Cl)C[C@H]3CCCO3)c2C(F)(F)F)CC1 [Example 808, trans-4-(4-((2-(3,5-dichloro-4-pyridinyl)-2-oxoethyl)((2R)-tetrahydro-2-furanylmethyl)carbamoyl)-5-(trifluoromethyl)-1H-pyrazol-1-yl)-1-methylcyclohexanecarboxylic acid] | 186
10 | C[C@@H]1C[C@@H](n2ncc(C(=O)N3CC4(CC=CC4)C[C@@H]3Cc3c(Cl)cncc3Cl)c2C(F)(F)F)CC[C@@H]1C(=O)O [Example 809, (1S,2R,4S)-4-(4-(((3R)-3-((3,5-dichloro-4-pyridinyl)methyl)-2-azaspiro[4.4]non-7-en-2-yl)carbonyl)-5-(trifluoromethyl)-1H-pyrazol-1-yl)-2-methylcyclohexanecarboxylic acid] | 17.8
11 | C[C@@H]1C[C@@H](n2ncc(C(=O)N(CC(=O)c3c(Cl)cncc3Cl)CC3(F)CCCC3)c2C(F)(F)F)CC[C@@H]1C(=O)O [Example 810, (1S,2R,4S)-4-(4-((2-(3,5-dichloro-4-pyridinyl)-2-oxoethyl)((1-fluorocyclopentyl)methyl)carbamoyl)-5-(trifluoromethyl)-1H-pyrazol-1-yl)-2-methylcyclohexanecarboxylic acid] | 3.09
12 | C[C@@H]1C[C@@H](n2ncc(C(=O)N(CC(=O)c3c(Cl)cccc3Cl)CC3(C(F)(F)F)CC3)c2C(F)(F)F)CC[C@@H]1C(=O)O [Example 811, (1S,2R,4S)-4-(4-((2-(2,6-dichlorophenyl)-2-oxoethyl)((1-(trifluoromethyl)cyclopropyl)methyl)carbamoyl)-5-(trifluoromethyl)-1H-pyrazol-1-yl)-2-methylcyclohexanecarboxylic acid] | 1.78
13 | C[C@@H]1C[C@H](n2ncc(C(=O)N(CC(=O)c3c(Cl)cncc3Cl)CC(C)(C)C)c2C(F)(F)F)CC[C@H]1C(=O)O [Example 812, (1R,2R,4R)-4-(4-((2-(3,5-dichloro-4-pyridinyl)-2-oxoethyl)(2,2-dimethylpropyl)carbamoyl)-5-(trifluoromethyl)-1H-pyrazol-1-yl)-2-methylcyclohexanecarboxylic acid] | 9.33
14 | C[C@]1(CN(CC(=O)c2c(Cl)ccc(F)c2Cl)C(=O)c2cnn([C@H]3CC[C@](C)(C(=O)O)CC3)c2C(F)(F)F)CCCO1 [Example 814, trans-4-(4-((2-(2,6-dichloro-3-fluorophenyl)-2-oxoethyl)(((2R)-2-methyltetrahydro-2-furanyl)methyl)carbamoyl)-5-(trifluoromethyl)-1H-pyrazol-1-yl)-1-methylcyclohexanecarboxylic acid] | 9.12
15 | C[C@@]1(CN(CC(=O)c2c(Cl)ccc(F)c2Cl)C(=O)c2cnn([C@H]3CC[C@](C)(C(=O)O)CC3)c2C(F)(F)F)CCCO1 [Example 815, trans-4-(4-((2-(2,6-dichloro-3-fluorophenyl)-2-oxoethyl)(((2S)-2-methyltetrahydro-2-furanyl)methyl)carbamoyl)-5-(trifluoromethyl)-1H-pyrazol-1-yl)-1-methylcyclohexanecarboxylic acid] | 12.9
16 | C[C@@H]1C[C@@H](n2ncc(C(=O)N(CC(=O)c3c(Cl)cncc3Cl)[C@H]3CCC34CCC4)c2C(F)(F)F)CC[C@@H]1C(=O)O [Example 816, (1S,2R,4S)-4-(4-((2-(3,5-dichloro-4-pyridinyl)-2-oxoethyl)((1S)-spiro[3.3]hept-1-yl)carbamoyl)-5-(trifluoromethyl)-1H-pyrazol-1-yl)-2-methylcyclohexanecarboxylic acid] | 4.47
17 | C[C@@H]1C[C@@H](n2ncc(C(=O)N(CC(=O)c3c(Cl)cncc3Cl)[C@@H]3CCC34CCC4)c2C(F)(F)F)CC[C@@H]1C(=O)O [Example 817, (1S,2R,4S)-4-(4-((2-(3,5-dichloro-4-pyridinyl)-2-oxoethyl)((1R)-spiro[3.3]hept-1-yl)carbamoyl)-5-(trifluoromethyl)-1H-pyrazol-1-yl)-2-methylcyclohexanecarboxylic acid] | 64.6

Source: patent publication US9365522B2, “Pyrazole amide derivative” (AMGEN INC., priority 2015, dated 2016)
